Results from patent US9249104B2, “Pyrazole indanyl carboxamides” (BAYER CROPSCIENCE AG, priority 2012, dated 2016).

How the values were obtained:
Alternaria brassicae = assay: In vivo preventive test on Alternaria brassicae (leaf spot on radish); settings: 500 ppm, radish plants sprayed 24 h before contamination, graded 6 days after contamination
Procedure: Radish plants (“Pernod Clair” variety), sown in starter cups on a 50/50 peat soil-pozzolana substrate and grown at 17° C., are treated at the cotyledon stage by spraying with the active ingredient prepared as described above. Plants, used as controls, are treated with the mixture of acetone/tween/DMSO/water not containing the active material. After 24 hours, the plants are contaminated by spraying the cotyledons with an aqueous suspension of Alternaria brassicae spores (50 000 spores per ml). The spores are collected from a 15-day-old culture. The contaminated radish plants are incubated at 20° C. and at 100% relative humidity. Grading (% of efficacy) is carried out 6 days after the contamination, in comparison with the control plants.

[1] = logP by HPLC on reversed phase columns (EEC directive 79/831 Annex V.A8); type: physicochemical; settings: for logP: method [a]: LC-MS at pH 2.7, 0.1% formic acid in water / acetonitrile, compounds of formula (I), Table 1
Septoria tritici = assay: In vivo preventive test on Septoria tritici (leaf spot on wheat); settings: 500 ppm, wheat plants sprayed 24 h before contamination, graded 24 days after contamination
Procedure: Wheat plants (“Scipion” variety), sown in starter cups on a 50/50 peat soil-pozzolana substrate and grown at 22° C., are treated at the 1-leaf stage (10 cm height) by spraying with the active ingredient prepared as described above. Plants, used as controls, are treated with the mixture of acetone/tween/DMSO/water not containing the active material. After 24 hours, the plants are contaminated by spraying the leaves with an aqueous suspension of cryopreserved Septoria tritici spores (500 000 spores per ml). The contaminated wheat plants are incubated for 72 hours at 18° C. and at 100% relative humidity, and then for 21 days at 90% relative humidity. Grading (% of efficacy) is carried out 24 days after the contamination, in comparison with the control plants.

Pyrenophora teres = assay: In vivo preventive test on Pyrenophora teres (net blotch on barley); settings: graded 14 days after contamination
Procedure: Barley plants (“Plaisant” variety), sown in starter cups on a 50/50 peat soil-pozzolana substrate and grown at 22° C., are treated at the 1-leaf stage (10 cm height) by spraying with the active ingredient prepared as described above. Plants, used as controls, are treated with the mixture of acetone/tween/DMSO/water not containing the active material. After 24 hours, the plants are contaminated by spraying the leaves with an aqueous suspension of Pyrenophora teres spores (12 000 spores per ml). The spores are collected from a 12-day-old culture. […] Grading (% of efficacy) is carried out 14 days after the contamination, in comparison with the control plants.

Puccinia recondita = assay: In vivo preventive test on Puccinia recondita (brown rust on wheat); settings: graded 12 days after contamination
Procedure: Wheat plants (“Scipion” variety), sown in starter cups on a 50/50 peat soil-pozzolana substrate and grown at 22° C., are treated at the 1-leaf stage (10 cm height) by spraying with the active ingredient prepared as described above. Plants, used as controls, are treated with the mixture of acetone/tween/DMSO/water not containing the active material. After 24 hours, the plants are contaminated by spraying the leaves with an aqueous suspension of Puccinia recondita spores (100 000 spores per ml). The spores are collected from an infected plant and are suspended in water to containing 2.5 ml/l of Tween 80 at 10%. […] Grading (% of efficacy) is carried out 12 days after the contamination, in comparison with the control plants.

Uromyces appendiculatus = assay: In vivo preventive test on Uromyces appendiculatus (bean rust); settings: bean plants
Procedure: Bean plants (“Saxa” variety), sown in starter cups on a 50/50 peat soil-pozzolana substrate and grown at 24° C., are treated at the 2-leaf stage (9 cm height) by spraying with the active ingredient prepared as described above. Plants, used as controls, are treated with the mixture of acetone/tween/DMSO/water not containing the active material. After 24 hours, the plants are contaminated by spraying the leaves with an aqueous suspension of Uromyces appendiculatus spores (150 000 spores per ml). The spores are collected from infected plants and are suspended in water containing 2.5 ml/1 of Tween 80 at 10%. […] Grading (% of efficacy) is carried out 11 days after the contamination, in comparison with the control plants.

Sphaerotheca fuliginea = assay: In vivo preventive test on Sphaerotheca fuliginea (powdery mildew on cucurbits); settings: graded 12 days after contamination
Procedure: Gherkin plants (“Vert petit de Paris” variety), sown in starter cups on a 50/50 peat soil-pozzolana substrate and grown at 24° C., are treated at the Z11 cotyledon stage by spraying with the active ingredient prepared as described above. Plants, used as controls, are treated with the mixture of acetone/tween/DMSO/water not containing the active material. After 24 hours, the plants are contaminated by spraying the cotyledons with an aqueous suspension of Sphaerotheca fuliginea spores (100 000 spores per ml). The spores are collected from infected plants. […] Grading (% of efficacy) is carried out 12 days after the contamination, in comparison with the control plants.

[2] = 500 ppm, barley plants sprayed 24 h before contamination
[3] = 500 ppm, wheat plants sprayed 24 h before contamination
[4] = preventive, dose of 500 ppm, grading 11 days after contamination
[5] = 500 ppm, gherkin plants sprayed 24 h before contamination

logP [1]	chromatographic logP ([1]; pH 2.7)	SMILES	Eff. % (Alternaria brassicae) [%]	Eff. % (Septoria tritici) [%]	Eff. % (Pyrenophora teres; [2]) [%]	Eff. % (Puccinia recondita; [3]) [%]	Eff. % (Uromyces appendiculatus; [4]) [%]	Eff. % (Sphaerotheca fuliginea; [5]) [%]	Eff. % (Puccinia recondita; 100 ppm, wheat plants) [%]	Eff. % (Sphaerotheca fuliginea; 100 ppm, gherkin plants) [%]	Eff. % (Uromyces appendiculatus; 100 ppm, graded 11 days after contamination) [%]	Eff. % (Pyrenophora teres; 100 ppm, barley plants) [%]
4.27[a]		CC(C)C1Cc2c(NC(=O)c3cn(C)nc3C(F)F)cccc2C1(C)C (stereo not shown) [Example 39]	98	71		98	100	100				
4.46[a]		CC(C)C1Cc2c(NC(=O)c3cn(C)nc3C(F)(F)F)cccc2C1(C)C (stereo not shown) [Example 40]	89	93		98	100	100				
4.34[a]		Cc1nn(C)c(F)c1C(=O)Nc1cccc2c1CC(C(C)C)C2(C)C (stereo not shown) [Example 41]	78	71		100	100	100				
3.21[a]		Cn1cc(C(=O)Nc2cccc3c2CC(C)(C)C3)c(C(F)F)n1 [Example 45]		97		98	100	100				
4.51[a]		CCC1Cc2c(NC(=O)c3c(C(F)(F)F)nn(C)c3F)cccc2C1(C)C (stereo not shown) [Example 50]	88			98	100	98				
3.72[a]		CC1c2cccc(NC(=O)c3cn(C)nc3C(F)(F)F)c2CC1(C)C (stereo not shown) [Example 52]		94		100	100	98				
	4.54	CC(C)C1Cc2c(NC(=S)c3cn(C)nc3C(F)F)cccc2C1(C)C (stereo not shown) [Example 77, 3-(difluoromethyl)-N-(2-isopropyl-1,1-dimethyl-2,3-dihydro-1H-inden-4-yl)-1-methyl-1H-pyrazole-4-carbothioamide]							100	100	100	100

Second part, the compound before the results:

SMILES	logP [1]	chromatographic logP ([1]; pH 2.7)	Eff. % (Alternaria brassicae) [%]	Eff. % (Septoria tritici) [%]	Eff. % (Pyrenophora teres; [2]) [%]	Eff. % (Puccinia recondita; [3]) [%]	Eff. % (Uromyces appendiculatus; [4]) [%]	Eff. % (Sphaerotheca fuliginea; [5]) [%]	Eff. % (Puccinia recondita; 100 ppm, wheat plants) [%]	Eff. % (Sphaerotheca fuliginea; 100 ppm, gherkin plants) [%]	Eff. % (Uromyces appendiculatus; 100 ppm, graded 11 days after contamination) [%]	Eff. % (Pyrenophora teres; 100 ppm, barley plants) [%]
CCc1c(C(=O)Nc2cccc3c2CC(C)C3(C)C)cnn1C (stereo not shown) [Example 20]	3.37[a]		97	97	100							
Cn1cc(C(=O)Nc2cccc3c2CC2CCCCC32)c(C(F)F)n1 (stereo not shown) [Example 24]	3.81[a]				86	89	100					
Cn1cc(C(=O)Nc2cccc3c2CC2(CCCC2)C3)c(C(F)F)n1 [Example 25]	3.74[a]		71		71	94	100	95				
[2H]C1(C)Cc2cccc(NC(=O)c3cn(C)nc3C(F)F)c2C1 (stereo not shown) [Example 26]	2.94[a]			100		100	100	89				
CC1c2c(NC(=O)c3cn(C)nc3C(F)(F)F)cccc2C(C)(C)C1C (stereo not shown) [Example 31]	3.76[a]		80	79		94	100	72				
CCC1Cc2c(NC(=O)c3cn(C)nc3C(F)F)cccc2C1(C)C (stereo not shown) [Example 36]	3.96[a]			86	75	98	100	100				
CCC1Cc2c(NC(=O)c3c(C)nn(C)c3C)cccc2C1(C)C (stereo not shown) [Example 38]	3.55[a]		80			100	100					
